Laboratory results reported in ChEMBL document CHEMBL4334526, “Synthesis of Peptoid-Based Class I-Selective Histone Deacetylase Inhibitors with Chemosensitizing Properties” (J Med Chem, 2019).
Activity calls are given as the source filed them. No cut-off for these calls is given here.

Tests used:
[1] = biological target: T1, Class 1 histone deacetylase (Homo sapiens, UniProt Q13547+O15379+Q92769+Q9BY41); experiment: Inhibition of class 1 HDAC in human Cal27CisR cells assessed as potentiation of cisplatin-induced apoptosis by measuring increase in accumulation at sub-G1 phase at 5 uM preincubated for 48 hrs followed by cisplatin addition and measured after 24 hrs by propidium iodide staining based flow cytometry; assay type: cell-based
T1 sequence (O15379 whole entry, looked up): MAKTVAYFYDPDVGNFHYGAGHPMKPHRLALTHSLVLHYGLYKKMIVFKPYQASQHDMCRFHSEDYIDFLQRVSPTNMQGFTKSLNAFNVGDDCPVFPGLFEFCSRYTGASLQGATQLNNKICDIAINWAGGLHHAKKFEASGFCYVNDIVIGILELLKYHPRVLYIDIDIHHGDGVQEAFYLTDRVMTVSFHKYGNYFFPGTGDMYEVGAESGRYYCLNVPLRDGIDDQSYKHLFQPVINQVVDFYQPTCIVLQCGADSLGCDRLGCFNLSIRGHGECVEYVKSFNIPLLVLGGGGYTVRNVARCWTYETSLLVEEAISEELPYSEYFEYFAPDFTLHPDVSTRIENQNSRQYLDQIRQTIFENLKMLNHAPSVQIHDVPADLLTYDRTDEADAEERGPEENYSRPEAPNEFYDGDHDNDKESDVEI
T1 sequence (Q13547 whole entry, looked up): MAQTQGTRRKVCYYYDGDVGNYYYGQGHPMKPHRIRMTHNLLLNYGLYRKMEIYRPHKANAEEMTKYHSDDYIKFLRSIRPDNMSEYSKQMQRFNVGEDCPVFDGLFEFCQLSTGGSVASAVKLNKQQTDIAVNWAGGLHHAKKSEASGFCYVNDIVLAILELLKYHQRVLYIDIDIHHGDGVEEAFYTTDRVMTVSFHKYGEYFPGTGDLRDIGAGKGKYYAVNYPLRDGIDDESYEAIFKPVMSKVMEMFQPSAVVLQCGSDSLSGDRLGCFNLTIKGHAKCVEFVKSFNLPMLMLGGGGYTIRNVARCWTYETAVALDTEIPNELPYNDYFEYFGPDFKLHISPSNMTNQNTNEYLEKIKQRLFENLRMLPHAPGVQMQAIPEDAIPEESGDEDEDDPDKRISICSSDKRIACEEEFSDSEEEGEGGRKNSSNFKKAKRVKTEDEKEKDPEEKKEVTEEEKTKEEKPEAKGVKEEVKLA
T1 sequence (Q92769 whole entry, looked up): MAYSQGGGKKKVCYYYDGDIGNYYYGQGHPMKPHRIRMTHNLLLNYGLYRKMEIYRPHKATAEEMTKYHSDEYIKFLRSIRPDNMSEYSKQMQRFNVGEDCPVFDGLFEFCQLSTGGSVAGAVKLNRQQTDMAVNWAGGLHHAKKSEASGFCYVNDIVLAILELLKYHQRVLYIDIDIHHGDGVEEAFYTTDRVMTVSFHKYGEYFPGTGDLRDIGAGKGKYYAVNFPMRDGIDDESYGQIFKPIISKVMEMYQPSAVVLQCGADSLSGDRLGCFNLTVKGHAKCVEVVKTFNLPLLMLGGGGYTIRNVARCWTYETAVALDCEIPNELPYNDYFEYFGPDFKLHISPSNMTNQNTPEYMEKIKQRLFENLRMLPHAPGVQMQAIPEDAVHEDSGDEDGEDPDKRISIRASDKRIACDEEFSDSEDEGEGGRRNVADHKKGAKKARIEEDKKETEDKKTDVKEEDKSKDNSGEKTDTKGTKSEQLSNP
T1 sequence (Q9BY41 whole entry, looked up): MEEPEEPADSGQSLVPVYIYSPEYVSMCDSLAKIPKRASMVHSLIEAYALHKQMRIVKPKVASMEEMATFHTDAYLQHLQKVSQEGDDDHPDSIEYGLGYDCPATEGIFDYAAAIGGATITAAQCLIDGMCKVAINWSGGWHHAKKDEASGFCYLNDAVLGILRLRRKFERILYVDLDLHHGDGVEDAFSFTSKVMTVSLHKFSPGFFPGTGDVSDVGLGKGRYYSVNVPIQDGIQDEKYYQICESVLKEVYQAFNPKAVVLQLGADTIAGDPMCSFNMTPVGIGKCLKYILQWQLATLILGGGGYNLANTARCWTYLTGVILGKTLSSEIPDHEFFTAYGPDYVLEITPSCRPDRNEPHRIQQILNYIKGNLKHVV

[2] = biological target: T1, Class 1 histone deacetylase; experiment: Inhibition of class 1 HDAC in human Cal27CisR cells assessed as potentiation of cisplatin-induced cytotoxicity by measuring cisplatin IC50 at 5 uM preincubated for 48 hrs followed by cisplatin addition and measured after 72 hrs by MTT assay (reference value: 63.2 uM); assay type: cell-based
[3] = biological target: T1, Class 1 histone deacetylase; experiment: Inhibition of class 1 HDAC in human CAL27 cells assessed as potentiation of cisplatin-induced apoptosis by measuring increase in accumulation at sub-G1 phase at 5 uM preincubated for 48 hrs followed by cisplatin addition and measured after 24 hrs by propidium iodide staining based flow cytometry; assay type: cell-based; settings: CAL-27
[4] = biological target: T2, Protein deacetylase HDAC6 (Homo sapiens) (UniProt Q9UBN7); experiment: Inhibition of HDAC6 in human CAL27 cells assessed as acetylation of alpha-tubulin at 5 uM measured after 24 hrs by immunoblot analysis; assay type: cell-based
T2 sequence (whole entry): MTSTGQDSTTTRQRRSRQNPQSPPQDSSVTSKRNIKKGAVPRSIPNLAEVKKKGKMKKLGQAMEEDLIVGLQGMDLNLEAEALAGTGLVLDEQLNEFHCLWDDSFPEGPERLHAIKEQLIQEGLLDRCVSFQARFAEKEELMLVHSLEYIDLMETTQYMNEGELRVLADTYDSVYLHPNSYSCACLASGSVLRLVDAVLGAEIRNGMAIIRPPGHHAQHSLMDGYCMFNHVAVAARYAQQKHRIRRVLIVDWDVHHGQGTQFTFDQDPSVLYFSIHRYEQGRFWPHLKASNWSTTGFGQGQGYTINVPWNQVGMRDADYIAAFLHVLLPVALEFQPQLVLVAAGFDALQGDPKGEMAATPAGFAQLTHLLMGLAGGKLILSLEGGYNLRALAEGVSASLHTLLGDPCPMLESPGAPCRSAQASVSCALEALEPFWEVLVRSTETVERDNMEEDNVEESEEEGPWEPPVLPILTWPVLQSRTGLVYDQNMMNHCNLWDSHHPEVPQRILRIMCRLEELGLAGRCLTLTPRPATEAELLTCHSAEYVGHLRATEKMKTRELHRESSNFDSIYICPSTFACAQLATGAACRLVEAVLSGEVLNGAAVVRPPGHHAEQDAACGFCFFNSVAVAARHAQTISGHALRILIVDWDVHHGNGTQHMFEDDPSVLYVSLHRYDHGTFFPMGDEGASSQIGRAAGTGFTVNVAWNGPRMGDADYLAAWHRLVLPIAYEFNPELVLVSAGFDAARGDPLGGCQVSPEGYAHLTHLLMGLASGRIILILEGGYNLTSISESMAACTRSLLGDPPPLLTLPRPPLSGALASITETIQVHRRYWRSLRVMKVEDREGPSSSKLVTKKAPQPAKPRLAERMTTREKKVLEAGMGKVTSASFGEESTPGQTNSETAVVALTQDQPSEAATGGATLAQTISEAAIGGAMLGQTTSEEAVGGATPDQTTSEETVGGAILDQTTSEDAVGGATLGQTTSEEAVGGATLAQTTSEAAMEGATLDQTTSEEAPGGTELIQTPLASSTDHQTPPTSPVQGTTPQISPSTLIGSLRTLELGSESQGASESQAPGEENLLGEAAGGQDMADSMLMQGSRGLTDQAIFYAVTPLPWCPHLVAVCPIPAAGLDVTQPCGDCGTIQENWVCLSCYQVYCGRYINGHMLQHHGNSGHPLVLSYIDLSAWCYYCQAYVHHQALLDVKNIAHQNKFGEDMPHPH

[5] = biological target: T1, Class 1 histone deacetylase; experiment: Inhibition of class 1 HDAC in human Cal27CisR cells assessed as increase in histone H3 acetylation at 5 uM measured after 24 hrs by immunoblot analysis; assay type: cell-based
[6] = biological target: T1, Class 1 histone deacetylase; experiment: Inhibition of class 1 HDAC in human CAL27 cells assessed as potentiation of cisplatin-induced apoptosis assessed as increase in caspase-3/7 activation at 5 uM preincubated for 48 hrs followed by cisplatin addition and measured after 24 hrs in presence of pan caspase inhibitor QVD by CellEvent caspase 3/7 green detection reagent/Hoechst 33342 staining based imaging analysis; assay type: cell-based; settings: CAL-27
[7] = biological target: T1, Class 1 histone deacetylase
[8] = Induction of apoptosis in human Cal27CisR cells assessed as caspase-3/7 activation at 0.5 uM measured after 48 hrs by CellEvent caspase 3/7 green detection reagent/Hoechst 33342 staining based imaging analysis relative to control; assay type: functional
[9] = biological target: T1, Class 1 histone deacetylase; settings: CAL-27
Description: Inhibition of class 1 HDAC in human CAL27 cells assessed as potentiation of cisplatin-induced cytotoxicity by measuring combination index at 0.1 uM in presence of 0.1 uM cisplatin by MTT assay based Chou-Talalay analysis

[10] = biological target: T1, Class 1 histone deacetylase; remark: listed apart in the source
Description: Inhibition of class 1 HDAC in human Cal27CisR cells assessed as potentiation of cisplatin-induced cytotoxicity by measuring combination index at 0.10 uM in presence of 3.2 uM cisplatin by MTT assay based Chou-Talalay analysis

[11] = biological target: T1, Class 1 histone deacetylase; remark: listed apart in the source
Description: Inhibition of class 1 HDAC in human Cal27CisR cells assessed as potentiation of cisplatin-induced cytotoxicity by measuring combination index at 0.25 uM in presence of 10 uM cisplatin by MTT assay based Chou-Talalay analysis

[12] = system: CAL-27; experiment: Induction of apoptosis in human CAL27 cells assessed as accumulation at sub-G1 phase at 100 uM measured after 48 hrs by propidium iodide staining based flow cytometry relative to control; assay type: functional
[13] = biological target: T1, Class 1 histone deacetylase; settings: CAL-27; remark: listed apart in the source
Description: Inhibition of class 1 HDAC in human CAL27 cells assessed as potentiation of cisplatin-induced cytotoxicity by measuring combination index at 0.25 uM in presence of 0.1 uM cisplatin by MTT assay based Chou-Talalay analysis

[14] = biological target: T1, Class 1 histone deacetylase; remark: listed apart in the source
Description: Inhibition of class 1 HDAC in human Cal27CisR cells assessed as potentiation of cisplatin-induced cytotoxicity by measuring combination index at 0.10 uM in presence of 100 uM cisplatin by MTT assay based Chou-Talalay analysis

[15] = biological target: T1, Class 1 histone deacetylase; experiment: Inhibition of class 1 HDAC in human CAL27 cells assessed as potentiation of cisplatin-induced cytotoxicity by measuring fold reduction in cisplatin IC50 at […] preincubated for 48 hrs followed by cisplatin addition and measured after 72 hrs by MTT assay relative to cisplatin IC50; assay type: cell-based; settings: CAL-27
[16] = system: CAL-27; experiment: Induction of apoptosis in human CAL27 cells assessed as caspase-3/7 activation at […] measured after 48 hrs by CellEvent caspase 3/7 green detection reagent/Hoechst 33342 staining based imaging analysis relative to control; assay type: functional
[17] = biological target: T1, Class 1 histone deacetylase; experiment: Inhibition of class 1 HDAC in human Cal27CisR cells assessed as potentiation of cisplatin-induced cytotoxicity by measuring fold reduction in cisplatin IC50 at […] preincubated for 48 hrs followed by cisplatin addition and measured after 72 hrs by MTT assay relative to cisplatin IC50; assay type: cell-based
[18] = system: CAL-27; experiment: Induction of apoptosis in human CAL27 cells assessed as accumulation at sub-G1 phase at […] after 48 hrs by propidium iodide staining based flow cytometry relative to control; assay type: functional
[19] = biological target: Histone deacetylase 2 (Homo sapiens, UniProt Q92769); experiment: Inhibition of recombinant human full length C-terminal FLAG-tagged HDAC2 expressed in baculovirus infected Sf9 insect cells at 3.33 uM using Boc-Lys(epsilon-acetyl)-AMC as substrate incubated for 90 mins by fluorescence assay relative to control
Histone deacetylase 2, sequence (Q92769 whole entry): as the sequence (Q92769 whole entry, looked up) above

## Cc1cc(C)cc(C(=O)N(CCCCCC(=O)Nc2cc(-c3ccccc3)ccc2N)CC(=O)NCc2ccccc2)c1
[1]
  inhibition: Active
[2]
  IC50: 15.7 µM
[3]
  inhibition: Active
[4]
  inhibition: inactive
[5]
  inhibition: Active
[6]
  inhibition: inactive

## CN(C)c1ccc(C(=O)N(CC(=O)NCc2ccccc2)Cc2ccc(C(=O)Nc3ccccc3N)cc2)cc1
[7]
  CI: 0.04
[8]
  Activity: 8.16%
[9]
  CI: < 0.2
[10]
  CI: < 0.2
[11]
  CI: 0.23
[12]
  Activity: 31%
[13]
  CI: 0.56
[14]
  CI: 0.07

## Cc1cc(C)cc(C(=O)N(CC(=O)NCc2ccccc2)Cc2ccc(C(=O)Nc3cc(-c4ccccc4)ccc3N)cc2)c1
[15]
  Ratio IC50: 5.26
[16]
  Activity: 9.47%
[17]
  Ratio IC50: 5.27
[18]
  Activity: 6.27%
[19]
  inhibition: 34%
